Test results taken from patent publication US9549902B2, “Transdermal patch” (BOUTY S.P.A., priority 2005, dated 2017).

Key:
[1] = In vitro nitroglycerin permeation across mouse skin in Franz diffusion cells; format: in vitro ADME
Method: (§1) With the purpose of analysing the effect of sorbitan monooleate on nitroglycerin permeation kinetics, permeation of nitroglycerin from transdermal patches containing different concentrations of sorbitan monooleate was measured across mouse skin and human skin in Franz diffusion cells (produced by Hanson-Research).
(§2) The test was undertaken as described in the Italian Official Pharmacopoeia XI ed. and the European Pharmacopoeia 4th ed.
The permeation studies were conducted using Franz diffusion cells modified with an aperture 15 mm in diameter (membrane surface area 1.766 cm^2) and 7 ml cell volume. A phosphate buffer at pH 7 maintained under constant agitation was used as receptor fluid within the cell. […]
Within an hour of removal from the animal the skin samples were placed over the aperture of the cells to form a membrane and the transdermal patches to be analysed were each placed over a membrane and fastened with clips.
At determined intervals 300 μl of receptor solution were withdrawn and replaced each time with an equivalent volume of phosphate buffer.
The quantity of nitroglycerin in each sample was determined by means of HPLC analysis, using a 50:50 methanol/water mixture as mobile phase.
The results obtained for each patch were analyzed statistically using the t-test for independent samples. […]

[2] = In vitro nitroglycerin permeation across human skin (SCE membranes) in Franz diffusion cells; format: in vitro ADME
Method: as §1, §2
Samples of abdominal skin were obtained from the same donor by means of a surgical procedure.
Membranes consisting of the stratum corneum and epidermis (SCE membranes) were prepared by immersing the skin into distilled water at 60° C.±1° C. for one minute followed by their removal from the dermis. The membranes were dried in a dryer at about 25% ambient humidity, wrapped in aluminium sheets and maintained at a temperature of about −20° C.±1° C. until required. Dried membrane samples were rehydrated at ambient temperature by immersing in a saline solution for 16 hours. […]
The results obtained were analysed statistically using the t-test for independent samples.
The steady-state flux was then determined for each patch by linear regression of the cumulative quantity of drug permeated across the skin (μg/cm^2) as a function of time (h). […]

With sorbitan monooleate the “Action as absorption enhancer” value [1] was “does not act as an absorption enhancer” and the “Action as absorption enhancer” value [2] was “does not act as an absorption enhancer”.
